Reference: patent US20250171495A1, “MUTLI-TARGETED SERINE PROTEASE INHIBITORS FOR TREATMENT OF CANCER AND VIRAL INFECTION” (Washington University, priority 2023, published 2025)
“And” between values parts separate entries of the source, which are not always exact repeats. Equal entries are not always repeated. Where two headings read alike, the source gives them in different places.

How the values were obtained:
Format in all cases: biochemical
TMPRSS2 [1] = target: T1, TMPRSS2 (Homo sapiens, UniProt O15393); experiment: Fluorogenic kinetic enzyme inhibitor assay, TMPRSS2; parameters: purchased Cusabio Technology CSB-YP023924HU
Target sequence in this assay (O15393 106-492 limits assumed): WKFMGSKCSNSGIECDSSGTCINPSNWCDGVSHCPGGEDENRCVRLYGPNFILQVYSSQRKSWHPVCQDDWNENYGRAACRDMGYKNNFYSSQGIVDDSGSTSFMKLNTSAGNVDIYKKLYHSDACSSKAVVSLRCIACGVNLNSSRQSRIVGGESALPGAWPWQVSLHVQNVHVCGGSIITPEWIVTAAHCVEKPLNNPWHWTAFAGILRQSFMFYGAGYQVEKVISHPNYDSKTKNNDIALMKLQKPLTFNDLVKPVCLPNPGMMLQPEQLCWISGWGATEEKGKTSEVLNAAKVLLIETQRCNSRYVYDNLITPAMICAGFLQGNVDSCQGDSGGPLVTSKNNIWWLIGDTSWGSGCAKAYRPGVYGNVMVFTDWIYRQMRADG

HGFA = target: T2, HGFA (Homo sapiens, UniProt Q04756); experiment: HyCoSuL P4-P2 substrate specificity screening, HGFA; settings: for P2 Position Substrate Activity for HGFA (percent substrate cleavage/proteolysis): residue fixed at P2 position
T2 sequence (Q04756 373-655): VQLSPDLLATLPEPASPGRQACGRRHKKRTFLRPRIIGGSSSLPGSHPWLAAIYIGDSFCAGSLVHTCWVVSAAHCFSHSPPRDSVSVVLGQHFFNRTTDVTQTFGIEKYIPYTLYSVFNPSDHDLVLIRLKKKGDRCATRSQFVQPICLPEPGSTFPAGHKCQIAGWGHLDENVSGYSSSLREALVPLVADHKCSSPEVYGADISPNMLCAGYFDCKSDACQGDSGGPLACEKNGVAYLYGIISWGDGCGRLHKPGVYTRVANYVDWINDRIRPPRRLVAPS

hepsin = target: T3, hepsin (Homo sapiens, UniProt P05981); experiment: HyCoSuL P4-P2 substrate specificity screening, hepsin; settings: for P2 Position Substrate Activity for hepsin (percent substrate cleavage/proteolysis): residue fixed at P2 position
T3 construct: purchased R&D Systems 4776-SE-010

matriptase = target: T4, matriptase (Homo sapiens, UniProt Q9Y5Y6); experiment: HyCoSuL P4-P2 substrate specificity screening, matriptase; settings: for P2 Position Substrate Activity for matriptase (percent substrate cleavage/proteolysis): residue fixed at P2 position; for P3 Position Various Amino Acids Substrate Activity, matriptase (percent substrate cleavage/proteolysis): residue fixed at P3 position of substrate library; for P4 Position Various Amino Acids Substrate Activity, matriptase (percent substrate proteolysis/cleavage): residue fixed at P4 position of substrate library
T4 sequence (Q9Y5Y6 1-855): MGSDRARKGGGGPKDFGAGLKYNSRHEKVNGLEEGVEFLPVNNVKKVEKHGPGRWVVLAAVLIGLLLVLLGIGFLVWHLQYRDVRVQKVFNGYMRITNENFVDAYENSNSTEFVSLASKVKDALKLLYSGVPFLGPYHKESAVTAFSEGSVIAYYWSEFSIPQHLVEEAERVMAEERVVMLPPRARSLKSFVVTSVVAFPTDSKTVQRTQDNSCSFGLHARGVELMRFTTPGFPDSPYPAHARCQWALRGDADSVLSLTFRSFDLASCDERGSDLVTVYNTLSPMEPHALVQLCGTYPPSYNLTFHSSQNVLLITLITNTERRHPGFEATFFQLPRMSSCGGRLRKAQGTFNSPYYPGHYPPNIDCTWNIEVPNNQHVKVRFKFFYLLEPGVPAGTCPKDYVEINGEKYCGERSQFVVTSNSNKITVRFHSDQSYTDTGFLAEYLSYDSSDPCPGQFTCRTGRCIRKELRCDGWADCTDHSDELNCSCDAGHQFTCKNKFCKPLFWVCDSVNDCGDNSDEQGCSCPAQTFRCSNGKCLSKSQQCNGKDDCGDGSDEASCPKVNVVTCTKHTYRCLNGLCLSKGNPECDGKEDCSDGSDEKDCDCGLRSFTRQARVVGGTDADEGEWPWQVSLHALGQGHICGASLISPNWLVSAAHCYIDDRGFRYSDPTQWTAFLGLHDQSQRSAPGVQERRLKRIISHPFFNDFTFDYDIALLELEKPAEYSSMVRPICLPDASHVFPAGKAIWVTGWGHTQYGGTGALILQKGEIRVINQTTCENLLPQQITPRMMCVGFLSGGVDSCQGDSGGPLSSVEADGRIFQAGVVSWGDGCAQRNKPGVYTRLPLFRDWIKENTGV

TMPRSS2 [2] = target: T1, TMPRSS2; experiment: PS-SCL / HyCoSuL substrate specificity screening, TMPRSS2; settings: for P2 Position Substrate Activity for TMPRSS2 (percent substrate cleavage/proteolysis): residue fixed at P2 position of substrate library
Target sequence in this assay (O15393 whole entry): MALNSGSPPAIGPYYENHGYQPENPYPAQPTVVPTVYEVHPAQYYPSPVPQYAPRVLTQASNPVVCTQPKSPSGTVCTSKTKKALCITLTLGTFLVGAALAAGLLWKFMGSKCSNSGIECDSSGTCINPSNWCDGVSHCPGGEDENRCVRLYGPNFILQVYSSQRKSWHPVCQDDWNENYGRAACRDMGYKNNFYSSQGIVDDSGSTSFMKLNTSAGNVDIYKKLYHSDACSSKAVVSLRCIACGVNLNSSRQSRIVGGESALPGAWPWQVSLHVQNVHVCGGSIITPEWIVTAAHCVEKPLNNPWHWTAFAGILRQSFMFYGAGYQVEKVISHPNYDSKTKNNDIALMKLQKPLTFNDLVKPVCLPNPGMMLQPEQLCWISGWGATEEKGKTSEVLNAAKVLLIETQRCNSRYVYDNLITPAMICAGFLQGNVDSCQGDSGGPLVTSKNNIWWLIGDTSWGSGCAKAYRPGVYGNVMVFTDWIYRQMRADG

[3] = P1-Arg HyCoSuL, 100 μM, best recognized amino acid set to 100%
[4] = residue fixed at P3 position of substrate library
[5] = residue fixed at P4 position of substrate library
[6] = best recognized amino acid set to 100%
[7] = residue fixed at P3 position, P1-Arg HyCoSuL, 100 μM, best recognized amino acid set to 100%
[8] = residue fixed at P4 position, P1-Arg HyCoSuL, 100 μM, best recognized amino acid set to 100%

T3 sequence (P05981 163-417 limits assumed): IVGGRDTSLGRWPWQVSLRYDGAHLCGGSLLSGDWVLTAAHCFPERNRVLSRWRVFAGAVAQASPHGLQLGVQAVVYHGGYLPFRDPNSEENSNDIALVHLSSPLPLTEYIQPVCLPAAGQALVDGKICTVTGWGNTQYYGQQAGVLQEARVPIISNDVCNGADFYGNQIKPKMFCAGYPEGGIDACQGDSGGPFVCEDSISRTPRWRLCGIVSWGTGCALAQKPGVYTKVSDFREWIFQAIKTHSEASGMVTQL
T3 sequence (P05981 1-162 partner limits assumed): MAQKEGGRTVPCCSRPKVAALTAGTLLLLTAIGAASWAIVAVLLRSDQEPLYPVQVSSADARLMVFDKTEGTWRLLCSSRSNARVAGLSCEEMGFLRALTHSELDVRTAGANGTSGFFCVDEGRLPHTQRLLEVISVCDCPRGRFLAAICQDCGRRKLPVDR

C=CCOC(=O)CC[C@H](NC(=O)[C@@H]1Cc2ccccc2N1C(C)=O)C(=O)N[C@@H](Cc1ccc(F)cc1)C(=O)N[C@H](CCCNC(=N)N)C(=O)c1nc2ccccc2s1 [MF1067A, allyl (S)-4-[(S)-1-acetyl-2-indolinylcarbonylamino]-4-[N-(S)-2-(p-fluorophenyl)-1-[N-(R)-1-[(1,3-benzothiazol-2-yl)carbonyl]-4-guanidinobutylcarbamoyl]ethylcarbamoyl]butyrate]
IC50 (TMPRSS2 [1]): 0.431 nM

C=CCOC(=O)CC[C@H](NC(=O)[C@@H]1Cc2ccccc2N1C(C)=O)C(=O)N[C@@H](Cc1ccc(F)cc1)C(=O)N[C@@H](CCCNC(=N)N)C(=O)c1nc2ccccc2s1 [MF1067B, allyl (S)-4-[(S)-1-acetyl-2-indolinylcarbonylamino]-4-[N-(S)-2-(p-fluorophenyl)-1-[N-(S)-1-[(1,3-benzothiazol-2-yl)carbonyl]-4-guanidinobutylcarbamoyl]ethylcarbamoyl]butyrate]
IC50 (TMPRSS2 [1]): 0.2 nM

N=C(N)NCCC[C@H](NC(=O)[C@H](CCc1ccc(O)cc1)NC(=O)OCC1c2ccccc2-c2ccccc21)C(=O)c1nc2ccccc2s1 [MF1163, (S)-3-(p-hydroxyphenyl)-1-[N-(S)-1-[(1,3-benzothiazol-2-yl)carbonyl]-4-guanidinobutylcarbamoyl] propyl (9H-fluoren-9-yl)methanecarbamate]
IC50 (TMPRSS2 [1]; read-out: TMPRSS2 IC50): 0.167 nM

CC(C)CC[C@H](NC(=O)OCC1c2ccccc2-c2ccccc21)C(=O)N[C@@H](CCCNC(=N)N)C(=O)c1nc2ccccc2s1 [MF1164, (S)-4-methyl-1-[N-(S)-1-[(1,3-benzothiazol-2-yl)carbonyl]-4-guanidinobutylcarbamoyl] pentyl (9H-fluoren-9-yl)methanecarbamate]
IC50 (TMPRSS2 [1]; read-out: TMPRSS2 IC50): 458 nM

CC(=O)NCC(=O)N[C@@H](CCC(N)=O)C(=O)N[C@@H](Cc1ccccc1)C(=O)N[C@H](CCCNC(=N)N)C(=O)c1nc2ccccc2s1 [MM3122-1, N-[(S)-1-[N-(R)-1-[(1,3-benzothiazol-2-yl)carbonyl]-4-guanidinobutylcarbamoyl]-2-phenylethyl](S)-2-[(acetylaminomethyl)carbonylamino]glutaramide]
IC50 (TMPRSS2 [1]; read-out: TMPRSS2 IC50): 6.46 nM

CC(=O)N[C@@H](CCCCNC(=N)N)C(=O)N[C@@H](Cc1cncn1COCc1ccccc1)C(=O)N[C@@H](CCC(C)C)C(=O)N[C@H](CCCNC(=N)N)C(=O)c1nc2ccccc2s1 [MM4031-1, N-[(R)-1-[(1,3-benzothiazol-2-yl)carbonyl]-4-guanidinobutyl](S)-2-[(S)-2-[(S)-1-acetylamino-5-guanidinopentylcarbonylamino]-3-{1-[(benzyloxy)methyl]-5-imidazolyl}propionylamino]-5-methylhexanamide]
IC50 (TMPRSS2 [1]; read-out: TMPRSS2 IC50): 7.54 nM

CC(=O)N[C@@H](CCCCNC(=N)N)C(=O)N[C@@H](Cc1cncn1COCc1ccccc1)C(=O)N[C@@H](CCC(C)C)C(=O)N[C@@H](CCCNC(=N)N)C(=O)c1nc2ccccc2s1 [MM4031-2, N-[(S)-1-[(1,3-benzothiazol-2-yl)carbonyl]-4-guanidinobutyl](S)-2-[(S)-2-[(S)-1-acetylamino-5-guanidinopentylcarbonylamino]-3-{1-[(benzyloxy)methyl]-5-imidazolyl}propionylamino]-5-methylhexanamide]
IC50 (TMPRSS2 [1]; read-out: TMPRSS2 IC50): 9.39 nM

CCC(C)[C@H](NC(C)=O)C(=O)N[C@@H](CCC(=O)O)C(=O)N[C@@H](Cc1ccccc1)C(=O)N[C@H](CCCNC(=N)N)C(=O)c1nc2ccccc2s1 (stereo partly drawn) [MM4037-1, (S)-4-[(2S)-2-acetylamino-3-methylvalerylamino]-4-[N-(S)-1-[N-(R)-1-[(1,3-benzothiazol-2-yl)carbonyl]-4-guanidinobutylcarbamoyl]-2-phenylethylcarbamoyl]butyric acid]
IC50 (TMPRSS2 [1]; read-out: TMPRSS2 IC50): 0.385 nM

N=C(N)NCCC[C@H](NC(=O)[C@H](Cc1ccccc1)NC(=O)[C@H](N)Cc1c[nH]c2ccccc12)C(=O)c1nc2ccccc2s1 [PK-1-18A1, N-[(S)-1-[(1,3-benzothiazol-2-yl)carbonyl]-4-guanidinobutyl](S)-2-[(R)-2-amino-3-(3-indolyl)propionylamino]-3-phenylpropionamide]
IC50 (TMPRSS2 [1]; read-out: TMPRSS2 IC50): 25.8 nM

N=C(N)NCCC[C@H](NC(=O)[C@H](Cc1ccccc1)NC(=O)[C@H](N)Cc1c[nH]c2ccccc12)C(=O)c1nc2ccc(C(=O)O)cc2s1 [PK-1-45A1, 2-[(S)-2-[(S)-2-[(R)-2-amino-3-(3-indolyl)propionylamino]-3-phenylpropionylamino]-5-guanidinovaleryl]-1,3-benzothiazole-6-carboxylic acid]
IC50 (TMPRSS2 [1]; read-out: TMPRSS2 IC50): 1.94 nM

CC(=O)N[C@H](Cc1c[nH]c2ccccc12)C(=O)N[C@@H](CC(C)C)C(=O)N[C@@H](CCCNC(=N)N)C(=O)c1nc2ccc(C(=O)O)cc2s1 [PK-1-94, 2-[(S)-2-[(S)-2-[(R)-2-acetylamino-3-(3-indolyl)propionylamino]-4-methylvalerylamino]-5-guanidinovaleryl]-1,3-benzothiazole-6-carboxylic acid]
IC50 (TMPRSS2 [1]; read-out: TMPRSS2 IC50): 1.91 nM

CC(=O)N[C@H]1Cc2ccc(cc2)Oc2ccc(cc2)C[C@@H](C(=O)N[C@@H](CCCNC(=N)N)C(=O)c2nc3ccccc3s2)NC(=O)[C@H](CC(C)C)NC1=O [VD5076B, N-[(S)-1-[(1,3-benzothiazol-2-yl)carbonyl]-4-guanidinobutyl]-(8S,11S,14S)-14-acetylamino-11-isobutyl-10,13-dioxo-2-oxa-9,12-diazatricyclo[14.2.2.2^3,^6]docosa-1(18),3,5,16,19,21-hexaene-8-carboxamide]
IC50 (TMPRSS2 [1]; read-out: TMPRSS2 IC50): 1.25 nM

L-Tyr
P2 Position Substrate Activity for HGFA (percent substrate cleavage/proteolysis) (HGFA; [3]): 3.17% | P3 Position Various Amino Acids Substrate Activity, HGFA (percent substrate cleavage/proteolysis) (HGFA; [4]): 11.59% | P4 Position Various Amino Acids Substrate Activity, HGFA (percent substrate proteolysis/cleavage) (HGFA; [5]): 16.47% | P2 Position Substrate Activity for hepsin (percent substrate cleavage/proteolysis) (hepsin; [3]): 22.79% | P3 Position Various Amino Acids Substrate Activity, hepsin (percent substrate cleavage/proteolysis) (hepsin; [4]): 7.75% | P4 Position Various Amino Acids Substrate Activity, hepsin (percent substrate proteolysis/cleavage) (hepsin; [5]): 22.39% | P2 Position Substrate Activity for matriptase (percent substrate cleavage/proteolysis) (matriptase; [3]): 12% | P3 Position Various Amino Acids Substrate Activity, matriptase (percent substrate cleavage/proteolysis) (matriptase): 17% | P4 Position Various Amino Acids Substrate Activity, matriptase (percent substrate proteolysis/cleavage) (matriptase): 14% | P2 Position Substrate Activity for TMPRSS2 (percent substrate cleavage/proteolysis) (TMPRSS2 [2]; [6]): 31.93% | P3 Position Various Amino Acids Substrate Activity, TMPRSS2 (percent substrate cleavage/proteolysis) (TMPRSS2 [2]; [4]): 16.18% | P4 Position Various Amino Acids Substrate Activity, TMPRSS2 (percent substrate proteolysis/cleavage) (TMPRSS2 [2]; [5]): 31.87%

L-hArg
P2 Position Substrate Activity for HGFA (percent substrate cleavage/proteolysis) (HGFA; [3]): 5.83% | P3 Position Substrate Activity for HGFA (percent substrate cleavage/proteolysis) (HGFA; [7]): 100.00% | P4 Position Substrate Activity for HGFA (percent substrate cleavage/proteolysis) (HGFA; [8]): 22.07% | P2 Position Substrate Activity for hepsin (percent substrate cleavage/proteolysis) (hepsin; [3]): 57.96% | P3 Position Substrate Activity for hepsin (percent substrate cleavage/proteolysis) (hepsin; [7]): 47.00% | P4 Position Substrate Activity for hepsin (percent substrate cleavage/proteolysis) (hepsin; [8]): 56.24% | P2 Position Substrate Activity for matriptase (percent substrate cleavage/proteolysis) (matriptase; [3]): 16% | P3 Position Various Amino Acids Substrate Activity, matriptase (percent substrate cleavage/proteolysis) (matriptase): 44% | P3 Position Substrate Activity for matriptase (percent substrate cleavage/proteolysis) (matriptase; [7]): 44.42% | P4 Position Various Amino Acids Substrate Activity, matriptase (percent substrate proteolysis/cleavage) (matriptase): 86% | P4 Position Substrate Activity for matriptase (percent substrate cleavage/proteolysis) (matriptase; [8]): 76.43% and 86.17% | P2 Position Substrate Activity for TMPRSS2 (percent substrate cleavage/proteolysis) (TMPRSS2 [2]; [6]): 13.07% | P3 Position Substrate Activity for TMPRSS2 (percent substrate cleavage/proteolysis) (TMPRSS2 [2]; residue fixed at P3 position of substrate library, best recognized amino acid set to 100%): 18.34% | P4 Position Substrate Activity for TMPRSS2 (percent substrate cleavage/proteolysis) (TMPRSS2 [2]; residue fixed at P4 position of substrate library, best recognized amino acid set to 100%): 44.91%
